# Assays:
# [1] = biological target: Tyrosine-protein kinase JAK1 (Homo sapiens, UniProt P23458); experiment: JAK1 Assay
# [2] = biological target: T1, Phosphatidylinositol 4,5-bisphosphate 3-kinase catalytic subunit delta isoform (Homo sapiens, UniProt O00329); experiment: PI3K Delta Assay
# T1 sequence (O00329 whole entry): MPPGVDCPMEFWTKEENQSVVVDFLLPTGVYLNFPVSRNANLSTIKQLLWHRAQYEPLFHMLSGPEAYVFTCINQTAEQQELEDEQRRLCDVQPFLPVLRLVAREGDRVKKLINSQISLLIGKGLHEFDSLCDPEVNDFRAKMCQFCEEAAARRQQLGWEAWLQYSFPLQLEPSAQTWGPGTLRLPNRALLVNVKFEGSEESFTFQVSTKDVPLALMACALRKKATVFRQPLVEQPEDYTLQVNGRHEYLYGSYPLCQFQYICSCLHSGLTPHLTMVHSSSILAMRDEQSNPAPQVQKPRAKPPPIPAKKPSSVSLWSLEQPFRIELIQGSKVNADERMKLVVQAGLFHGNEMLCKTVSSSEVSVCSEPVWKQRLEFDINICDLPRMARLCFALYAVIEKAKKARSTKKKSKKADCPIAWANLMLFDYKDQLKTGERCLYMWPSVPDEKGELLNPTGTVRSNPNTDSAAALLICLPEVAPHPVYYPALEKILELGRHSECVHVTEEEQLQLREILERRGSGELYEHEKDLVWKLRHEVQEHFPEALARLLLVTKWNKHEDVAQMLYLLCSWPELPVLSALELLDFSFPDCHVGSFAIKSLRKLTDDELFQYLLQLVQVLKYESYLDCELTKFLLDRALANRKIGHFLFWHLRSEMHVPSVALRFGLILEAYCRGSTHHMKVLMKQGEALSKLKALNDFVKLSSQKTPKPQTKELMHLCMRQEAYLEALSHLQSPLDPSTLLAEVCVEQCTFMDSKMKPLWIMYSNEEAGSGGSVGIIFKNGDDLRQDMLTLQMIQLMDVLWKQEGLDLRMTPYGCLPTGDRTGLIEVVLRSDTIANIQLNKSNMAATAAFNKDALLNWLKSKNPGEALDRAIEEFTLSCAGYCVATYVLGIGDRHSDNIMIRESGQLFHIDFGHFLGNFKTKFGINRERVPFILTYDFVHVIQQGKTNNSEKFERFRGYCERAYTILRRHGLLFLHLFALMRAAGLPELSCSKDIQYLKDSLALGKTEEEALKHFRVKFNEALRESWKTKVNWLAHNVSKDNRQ
# From the text: Selectivity can be measured by methods routine in the art. In some embodiments, selectivity can be tested at the Km ATP concentration of each enzyme. In some embodiments, the selectivity of compounds described herein can be determined by cellular assays associated with particular PI3K kinase activity.
# Sequence of Tyrosine-protein kinase JAK1 (P23458 whole entry, canonical isoform): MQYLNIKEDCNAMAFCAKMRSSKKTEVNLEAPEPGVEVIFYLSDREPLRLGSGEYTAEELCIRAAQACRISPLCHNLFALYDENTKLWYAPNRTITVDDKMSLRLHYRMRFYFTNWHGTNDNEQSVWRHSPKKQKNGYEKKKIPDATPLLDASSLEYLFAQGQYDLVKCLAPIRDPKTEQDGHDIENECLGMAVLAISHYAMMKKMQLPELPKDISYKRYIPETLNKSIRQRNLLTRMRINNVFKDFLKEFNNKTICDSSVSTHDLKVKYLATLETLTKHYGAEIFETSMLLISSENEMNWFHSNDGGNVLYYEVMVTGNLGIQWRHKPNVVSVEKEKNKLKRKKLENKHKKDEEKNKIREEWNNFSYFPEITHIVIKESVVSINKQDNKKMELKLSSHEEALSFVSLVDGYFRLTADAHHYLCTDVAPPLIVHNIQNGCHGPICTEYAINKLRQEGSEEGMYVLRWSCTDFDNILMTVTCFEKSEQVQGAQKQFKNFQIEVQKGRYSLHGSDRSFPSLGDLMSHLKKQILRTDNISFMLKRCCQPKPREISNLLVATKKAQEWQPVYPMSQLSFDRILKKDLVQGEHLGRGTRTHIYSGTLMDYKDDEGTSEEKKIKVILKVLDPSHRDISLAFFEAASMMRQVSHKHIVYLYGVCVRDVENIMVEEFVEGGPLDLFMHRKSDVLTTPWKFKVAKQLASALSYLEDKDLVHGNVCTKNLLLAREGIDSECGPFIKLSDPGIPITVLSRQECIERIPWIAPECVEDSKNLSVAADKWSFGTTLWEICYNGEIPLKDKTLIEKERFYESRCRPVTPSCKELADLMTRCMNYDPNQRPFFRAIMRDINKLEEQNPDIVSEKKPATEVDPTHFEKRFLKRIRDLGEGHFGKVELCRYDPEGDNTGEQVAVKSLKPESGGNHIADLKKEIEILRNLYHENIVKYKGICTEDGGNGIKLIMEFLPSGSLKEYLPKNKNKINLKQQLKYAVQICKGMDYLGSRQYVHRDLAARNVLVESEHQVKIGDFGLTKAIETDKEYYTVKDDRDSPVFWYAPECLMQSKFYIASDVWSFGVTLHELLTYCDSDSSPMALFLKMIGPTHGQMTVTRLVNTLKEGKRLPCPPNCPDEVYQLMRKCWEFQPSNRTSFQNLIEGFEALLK
IC50 [1],Compound,IC50 [2]
< 10 nM,"N#CCC(CN1CCN(C(=O)c2ccc(C#N)cc2F)CC1)n1cc(-c2ncnc3[nH]ccc23)cn1 (configuration not stated) [4-[(4-{3-cyano-2-[4-(7H-pyrrolo[2,3-d]pyrimidin-4-yl)-1H-pyrazol-1-yl]propyl}piperazin-1-yl)carbonyl]-3-fluorobenzonitrile]",–
–,"CCOc1c(C(C)n2nc(C)c3c(N)ncnc32)cc(Cl)c(F)c1C1CNC(=O)C1 (configuration not stated) [4-{3-[1-(4-amino-3-methyl-1H-pyrazolo[3,4 d]pyrimidin-1-yl)ethyl]-5-chloro-2-ethoxy-6-fluorophenyl}pyrrolidin-2-one]",125 nM

# From BindingDB's records for patent US9708333 (Incyte Corporation, 2017)
